# From PubChem BioAssay AID1963447 (Molecular Pharmacology Branch, DTP, NCI, 2024)
# Where “and” joins values, the source holds several entries; their conditions need not be identical. Equal values may be shown once.
# Tested on: 885512-296-R-J2-PDC complex spheroid growth, % test/control
# Assay: Anticancer human tumor 885512-296-R-J2-PDC patient-derived breast carcinoma cell line growth inhibition [Asc]
# Details: for viability, T/C: stronger effect = lower value
# Outline: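 Tumor cells were grown as complex spheroids with human endothelial cells (HUVEC) and human mesenchymal stem cells as stroma. Agents were tested alone and in combination, in half-log steps down from the clinical Cmax, or from 10 microM where Cmax was unknown.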
# [1] = curve of first compound, second compound 0.1 µM
# [2] = curve of first compound, second compound 0.316 µM
# [3] = curve of first compound, second compound 1 µM
# [4] = second compound 0.1 µM, first compound 0.00316 µM
# [5] = second compound 0.1 µM, first compound 0.01 µM
# [6] = second compound 0.1 µM, first compound 0.0316 µM
# [7] = second compound 0.1 µM, first compound 0.1 µM
# [8] = second compound 0.1 µM, first compound 0.316 µM
# [9] = second compound 0.1 µM, first compound 1 µM
# [10] = second compound 0.316 µM, first compound 0.00316 µM
# [11] = second compound 0.316 µM, first compound 0.01 µM
# [12] = second compound 0.316 µM, first compound 0.0316 µM
# [13] = second compound 0.316 µM, first compound 0.1 µM
# [14] = second compound 0.316 µM, first compound 0.316 µM
# [15] = second compound 0.316 µM, first compound 1 µM
# [16] = second compound 1 µM, first compound 0.00316 µM
# [17] = second compound 1 µM, first compound 0.01 µM
# [18] = second compound 1 µM, first compound 0.0316 µM
# [19] = second compound 1 µM, first compound 0.1 µM
# [20] = second compound 1 µM, first compound 0.316 µM
# [21] = second compound 1 µM, first compound 1 µM
# [22] = curve of first compound, second compound 3.16 µM
# [23] = curve of first compound, second compound 10 µM
# [24] = second compound 3.16 µM, first compound 0.0316 µM
# [25] = second compound 3.16 µM, first compound 0.1 µM
# [26] = second compound 3.16 µM, first compound 0.316 µM
# [27] = second compound 3.16 µM, first compound 1 µM
# [28] = second compound 10 µM, first compound 0.0316 µM
# [29] = second compound 10 µM, first compound 0.1 µM
# [30] = second compound 10 µM, first compound 0.316 µM
# [31] = second compound 10 µM, first compound 1 µM
# 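Note: spheroids exposed to compounds for seven days.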
# 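Throughout, for viability, T/C: 100% = DMSO vehicle control wells.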
compound,measurement,setting,value
COc1c(OCCCN2CCOCC2)ccc2c3n(c(=NC(=O)c4cnc(N)nc4)nc12)CCN3 + CNC(C)C(=O)NC1CN(S(=O)(=O)c2cccc(S(=O)(=O)N3CCC4CCC(C(=O)NC(c5ccccc5)c5ccccc5)N4C(=O)C(NC(=O)C(C)NC)C3)c2)CCC2CCC(C(=O)NC(c3ccccc3)c3ccccc3)N2C1=O,IC50,"curve of first compound, second compound 0.01 µM",358 nM
same,IC50,"curve of first compound, second compound 0.0316 µM",394 nM
same,IC50,[1],387 nM
same,IC50,[2],410 nM
same,IC50,[3],343 nM
same,"viability, T/C","second compound 0.01 µM, first compound 0.00316 µM",85.2%
same,"viability, T/C","second compound 0.01 µM, first compound 0.01 µM",86.4%
same,"viability, T/C","second compound 0.01 µM, first compound 0.0316 µM",79.6%
same,"viability, T/C","second compound 0.01 µM, first compound 0.1 µM",88.2%
same,"viability, T/C","second compound 0.01 µM, first compound 0.316 µM",55.1%
same,"viability, T/C","second compound 0.01 µM, first compound 1 µM",7.8%
same,"viability, T/C","second compound 0.0316 µM, first compound 0.00316 µM",98.4%
same,"viability, T/C","second compound 0.0316 µM, first compound 0.01 µM",92.1%
same,"viability, T/C","second compound 0.0316 µM, first compound 0.0316 µM",89.3%
same,"viability, T/C","second compound 0.0316 µM, first compound 0.1 µM",85.3%
same,"viability, T/C","second compound 0.0316 µM, first compound 0.316 µM",59.3%
same,"viability, T/C","second compound 0.0316 µM, first compound 1 µM",8.15%
same,"viability, T/C",[4],104%
same,"viability, T/C",[5],98.6%
same,"viability, T/C",[6],86.3%
same,"viability, T/C",[7],81.8%
same,"viability, T/C",[8],61.5%
same,"viability, T/C",[9],8.94%
same,"viability, T/C",[10],89.5%
same,"viability, T/C",[11],93.2%
same,"viability, T/C",[12],97.4%
same,"viability, T/C",[13],83.6%
same,"viability, T/C",[14],62.6%
same,"viability, T/C",[15],7.92%
same,"viability, T/C",[16],102%
same,"viability, T/C",[17],105%
same,"viability, T/C",[18],99.8%
same,"viability, T/C",[19],79%
same,"viability, T/C",[20],54.5%
same,"viability, T/C",[21],8.06%
CNC(C)C(=O)NC1CN(S(=O)(=O)c2cccc(S(=O)(=O)N3CCC4CCC(C(=O)NC(c5ccccc5)c5ccccc5)N4C(=O)C(NC(=O)C(C)NC)C3)c2)CCC2CCC(C(=O)NC(c3ccccc3)c3ccccc3)N2C1=O (configuration not stated) + Cc1c(S(C)(=O)=O)c(-c2cc(F)cc(N3CCN(c4ccc(NS(=O)(=O)c5ccc(NC(CCN6CCC(C(=O)OCCCP(=O)(O)O)CC6)CSc6ccccc6)c(S(=O)(=O)C(F)(F)F)c5)cc4)CC3)c2)c(-c2ccc(Cl)cc2)n1C(C)C,IC50,[1],> 1000 nM
same,IC50,[2],> 1000 nM
same,IC50,[3],> 1000 nM
same,IC50,[22],> 1000 nM
same,IC50,[23],> 1000 nM
same,"viability, T/C",[4],78.5%
same,"viability, T/C",[5],89.6%
same,"viability, T/C",[6],89.2%
same,"viability, T/C",[7],101%
same,"viability, T/C",[8],116%
same,"viability, T/C",[9],88.8%
same,"viability, T/C",[10],80.1%
same,"viability, T/C",[11],92.6%
same,"viability, T/C",[12],107%
same,"viability, T/C",[13],93.5%
same,"viability, T/C",[14],106%
same,"viability, T/C",[15],109%
same,"viability, T/C",[16],90%
same,"viability, T/C",[17],100%
same,"viability, T/C",[18],112%
same,"viability, T/C",[19],102%
same,"viability, T/C",[20],107%
same,"viability, T/C",[21],109%
same,"viability, T/C","second compound 3.16 µM, first compound 0.00316 µM",94.7%
same,"viability, T/C","second compound 3.16 µM, first compound 0.01 µM",92.7%
same,"viability, T/C",[24],99.2%
same,"viability, T/C",[25],102%
same,"viability, T/C",[26],112%
same,"viability, T/C",[27],95.2%
same,"viability, T/C","second compound 10 µM, first compound 0.00316 µM",112%
same,"viability, T/C","second compound 10 µM, first compound 0.01 µM",103%
same,"viability, T/C",[28],91.5%
same,"viability, T/C",[29],98%
same,"viability, T/C",[30],100%
same,"viability, T/C",[31],105%
C=CC(=O)N1CCN(c2nc(=O)n(-c3c(C)ccnc3C(C)C)c3nc(-c4c(O)cccc4F)c(F)cc23)C(C)C1 (configuration not stated) + Cc1c(S(C)(=O)=O)c(-c2cc(F)cc(N3CCN(c4ccc(NS(=O)(=O)c5ccc(NC(CCN6CCC(C(=O)OCCCP(=O)(O)O)CC6)CSc6ccccc6)c(S(=O)(=O)C(F)(F)F)c5)cc4)CC3)c2)c(-c2ccc(Cl)cc2)n1C(C)C,IC50,[1],> 10000 nM
same,IC50,[2],> 10000 nM
same,IC50,[3],> 10000 nM
same,IC50,[22],> 10000 nM
same,IC50,[23],> 10000 nM
same,"viability, T/C",[6],85.3%
same,"viability, T/C",[7],80.7%
same,"viability, T/C",[8],92.2%
same,"viability, T/C",[9],83.6%
same,"viability, T/C","second compound 0.1 µM, first compound 3.16 µM",87.6%
same,"viability, T/C","second compound 0.1 µM, first compound 10 µM",55.8%
same,"viability, T/C",[12],94.3%
same,"viability, T/C",[13],87.2%
same,"viability, T/C",[14],86.8%
same,"viability, T/C",[15],81.2%
same,"viability, T/C","second compound 0.316 µM, first compound 3.16 µM",101%
same,"viability, T/C","second compound 0.316 µM, first compound 10 µM",74.7%
same,"viability, T/C",[18],80.6%
same,"viability, T/C",[19],73.5%
same,"viability, T/C",[20],93.3%
same,"viability, T/C",[21],104%
same,"viability, T/C","second compound 1 µM, first compound 3.16 µM",85.7%
same,"viability, T/C","second compound 1 µM, first compound 10 µM",62%
same,"viability, T/C",[24],98.7%
same,"viability, T/C",[25],90.3%
same,"viability, T/C",[26],109%
same,"viability, T/C",[27],106%
same,"viability, T/C","second compound 3.16 µM, first compound 3.16 µM",90.2%
same,"viability, T/C","second compound 3.16 µM, first compound 10 µM",68.3%
same,"viability, T/C",[28],119%
same,"viability, T/C",[29],117%
same,"viability, T/C",[30],114%
same,"viability, T/C",[31],114%
same,"viability, T/C","second compound 10 µM, first compound 3.16 µM",98.8%
same,"viability, T/C","second compound 10 µM, first compound 10 µM",71.6%
Cn1ncnc1[C@H]1c2n[nH]c(=O)c3cc(F)cc(c23)N[C@@H]1c1ccc(F)cc1,"viability, T/C",compound 0.000316 µM,101% and 86.7% and 96.2%
same,"viability, T/C",compound 0.001 µM,86.5% and 84.3% and 90.5%
same,"viability, T/C",compound 0.00316 µM,71.1% and 82.5% and 93.2%
same,"viability, T/C",compound 0.01 µM,70.2% and 73% and 67.9%
same,"viability, T/C",compound 0.0316 µM,53.5% and 54.3% and 57.9%
same,"viability, T/C",compound 0.1 µM,31.4% and 38.2% and 34.5%
same,IC50,curve of compound,32.3 nM and 43.3 nM and 42.2 nM
